Measurements: article PMC5474674, “D-BMAP18 Antimicrobial Peptide Is Active In vitro, Resists to Pulmonary Proteases but Loses Its Activity in a Murine Model of Pseudomonas aeruginosa Lung Infection” (Frontiers in Chemistry, 2017)
Where a SMILES comes first, the peptide text is derived from it.

What was measured:
[1] = cited from earlier work
Description: D-BMAP18 was synthesized to provide a molecule more resistant to enzymatic cleavage. The stability of D-BMAP18 was tested in murine BAL fluid.

P. aeruginosa RP73 = assay type: in vivo, mouse; conditions: 10 mg/kg intratracheal, day 1
Description: C57/Bl6NCrl mice (n = 8/group) were intratracheally challenged with 1 × 10^7 cells P. aeruginosa RP73 clinical strain, and 5 min later a single dose of D-BMAP18 at different concentrations (0.5, 1, and 2 mg/kg) was intratracheally administrated. Sterile distilled water alone or tobramycin [10 mg/kg] (Sigma-Aldrich S.r.l.), were used respectively as negative and positive control. […] Subsequently, lungs were homogenized (24,000 rpm) on ice in 1 ml of sterile PBS by using Ultra-Turrax T25-Basic homogenizer (IKA-Werke GmbH & Co. KG, Germany). Ten-fold serial dilutions of lung homogenates were plated on MH agar (Oxoid SpA), and the number of colony-forming units (CFU) was counted after incubation at 37°C for 24 h.

Row | Structure (SMILES) | degradation in murine BAL after 10 min [1] | time within which peptide is degraded by pulmonary proteases in murine BAL [1] | effect on bacterial load in murine lungs (P. aeruginosa RP73) | mortality (P. aeruginosa RP73; 1 out of 8 mice)
1 | CC(C)C[C@H](NC(=O)[C@H](CCCCN)NC(=O)[C@H](CCCCN)NC(=O)[C@H](Cc1ccccc1)NC(=O)[C@H](CC(C)C)NC(=O)[C@H](CCCCN)NC(=O)[C@H](CCCCN)NC(=O)[C@H](Cc1ccccc1)NC(=O)[C@H](CCCCN)NC(=O)[C@H](CCCCN)NC(=O)[C@H](CCCNC(=N)N)NC(=O)[C@H](Cc1ccccc1)NC(=O)[C@H](CCCNC(=N)N)NC(=O)[C@H](CCCCN)NC(=O)[C@H](Cc1ccccc1)NC(=O)[C@H](CCCNC(=N)N)NC(=O)CN)C(=O)N[C@@H](CO)C(N)=O [L-BMAP18] (H-GRFKRFRKKFKKLFKKLS-NH2) | most of the L-BMAP-18 was digested | ≤ 20 min |  | 
2 | NC[C@H]1O[C@H](O[C@H]2[C@H](O)[C@@H](O[C@H]3O[C@H](CO)[C@@H](O)[C@H](N)[C@H]3O)[C@H](N)C[C@@H]2N)[C@H](N)C[C@@H]1O [tobramycin] |  |  | weak effect | 12.5%
